Measured values: article PMC6783499, “Heteroglycoclusters With Dual Nanomolar Affinities for the Lectins LecA and LecB From Pseudomonas aeruginosa” (Frontiers in Chemistry, 2019)

Target: T1, LecB (Pseudomonas aeruginosa, UniProt Q9HYN5)
T1 construct: made in house; host or cells: Escherichia coli BL21(DE3)
Assay: biochemical
Type: binding
Conditions: for n (stoichiometry, glycocluster molecules per lectin monomer): pH 7.5; for –ΔG / –ΔH / −TΔS: per mole of glycocluster; for α (relative potency compared to the monovalent compound) / β (relative potency per sugar unit): relative to αFuc-OMe
Procedure: The resulting hGCs were tested in solution with lectins by Isothermal Titration Calorimetry (Table 1) and their binding properties were compared with homoclusters 15–20 (Berthet et al., [2013]; Thomas et al., [2015b]) displaying either 4 and 16 βGal or αFuc units attached with an oxime or a triazole linker (Figure 3). […] Experiments were performed in direct injection mode (i.e., ligand in syringe and protein in cell) to minimize aggregation problems.
All chemical reagents were purchased from Aldrich (Saint Quentin Fallavier, France) or Acros (Noisy-Le-Grand, France). All protected amino acids and Fmoc-Gly-Sasrin® resin was obtained from Advanced ChemTech Europe (Brussels, Belgium). For peptides and glycopeptides, analytical RP-HPLC was performed on Waters system equipped with a Waters 2695 separations module and a Waters 2487 Dual Absorbance UV/Visible Detector. Analysis was carried out at 1.0 mL/min (EC 125/3 nucleosil 300-5 C18) with UV monitoring at 214 nm and 250 nm using a linear A–B gradient (buffer A: 0.09% CF3CO2H in water; buffer B: 0.09% CF3CO2H in 90% acetonitrile). Purifications were carried out at 22.0 mL/min (VP 250/21 nucleosil 100-7 C18) with UV monitoring at 214 nm and 250 nm using a linear A–B gradient. HRMS and ESI-MS and HRMS spectra of peptides and glycopeptides were measured on an Esquire 3000 spectrometer from Bruker. Lectins LecA and LecB were produced in recombinant form in Escherichia coli BL21(DE3) as described previously (Mitchell et al., [2005]; Blanchard et al., [2008]).
Other compounds were assayed with a VP-ITC isothermal titration calorimeter (Microcal). The experiments were carried out at 25°C. All glycocompounds and lectins LecB and LecA were dissolved in the same buffer composed of 20 mM Tris with 100 mM NaCl and 0.1 mM CaCl2 at pH 7.5. For PEAQ-ITC, the lectins were placed in the microcalorimeter cell (200 μL) at concentrations varying from 35 to 70 μM. […] For VP-ITC, the microcalorimeter cell (1.447 mL) contained the lectins with concentrations between 30 and 100 μM. A total of 30 injections of 10 μL were performed intervals of 5 min while stirring at 310 rpm with glycoclusters concentrations varying from […]. The experimental data were fitted to a theoretical titration curve using the Microcal PEAQ-ITC analysis software, with ΔH (enthalpy change), Ka (association constant), and N (number of binding sites per monomer) as adjustable parameters. Dissociation constant (Kd), free energy change (ΔG), and entropy contributions (TΔS) were derived from the previous ones. Two or three independent titrations were performed for each ligand tested.

[1] = ITC, 25°C, 20 mM Tris, 100 mM NaCl, 0.1 mM CaCl2, pH 7.5, ligand in syringe

T1 sequence (Q9HYN5 entry or part of it): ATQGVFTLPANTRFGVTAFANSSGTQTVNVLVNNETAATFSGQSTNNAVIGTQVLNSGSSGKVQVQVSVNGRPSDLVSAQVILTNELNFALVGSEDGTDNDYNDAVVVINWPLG

SMILES	binding improvement on multimerisation of tetravalent to hexadecavalent dendrimer (19 versus tetravalent 15) [fold]	n (stoichiometry, glycocluster molecules per lectin monomer) (ITC, 25°C)	–ΔG (ITC, 25°C) [kcal/mol]	–ΔH (ITC, 25°C) [kcal/mol]	−TΔS (ITC, 25°C) [kcal/mol]	Kd [1] [nM]	binding to LecB in words (abstract)	α (relative potency compared to the monovalent compound)	β (relative potency per sugar unit)	Kd (ITC, rounded value) [nM]	–ΔH (binding enthalpy) (ITC) [kcal/mol]
C[C@@H]1NC(=O)[C@H](CCCCNC(=O)/C=N/OCC(=O)NCCCC[C@@H]2NC(=O)[C@H](CCCCNC(=O)/C=N/O[C@@H]3O[C@@H](C)[C@@H](O)[C@@H](O)[C@@H]3O)NC(=O)CNC(=O)[C@@H]3CCCN3C(=O)[C@H](CCCCNC(=O)/C=N/O[C@@H]3O[C@@H](C)[C@@H](O)[C@@H](O)[C@@H]3O)NC(=O)[C@H](C)NC(=O)[C@H](CCCCNC(=O)/C=N/O[C@@H]3O[C@@H](C)[C@@H](O)[C@@H](O)[C@@H]3O)NC(=O)CNC(=O)[C@@H]3CCCN3C(=O)[C@H](CCCCNC(=O)/C=N/O[C@@H]3O[C@@H](C)[C@@H](O)[C@@H](O)[C@@H]3O)NC2=O)NC(=O)CNC(=O)[C@@H]2CCCN2C(=O)[C@H](CCCCNC(=O)/C=N/OCC(=O)NCCCC[C@@H]2NC(=O)[C@H](CCCCNC(=O)/C=N/O[C@@H]3O[C@@H](C)[C@@H](O)[C@@H](O)[C@@H]3O)NC(=O)CNC(=O)[C@@H]3CCCN3C(=O)[C@H](CCCCNC(=O)/C=N/O[C@@H]3O[C@@H](C)[C@@H](O)[C@@H](O)[C@@H]3O)NC(=O)[C@H](C)NC(=O)[C@H](CCCCNC(=O)/C=N/O[C@@H]3O[C@@H](C)[C@@H](O)[C@@H](O)[C@@H]3O)NC(=O)CNC(=O)[C@@H]3CCCN3C(=O)[C@H](CCCCNC(=O)/C=N/O[C@@H]3O[C@@H](C)[C@@H](O)[C@@H](O)[C@@H]3O)NC2=O)NC(=O)[C@H](CCCCN)NC(=O)[C@H](CCCCNC(=O)/C=N/OCC(=O)NCCCC[C@@H]2NC(=O)[C@H](CCCCNC(=O)/C=N/O[C@@H]3O[C@@H](C)[C@@H](O)[C@@H](O)[C@@H]3O)NC(=O)CNC(=O)[C@@H]3CCCN3C(=O)[C@H](CCCCNC(=O)/C=N/O[C@@H]3O[C@@H](C)[C@@H](O)[C@@H](O)[C@@H]3O)NC(=O)[C@H](C)NC(=O)[C@H](CCCCNC(=O)/C=N/O[C@@H]3O[C@@H](C)[C@@H](O)[C@@H](O)[C@@H]3O)NC(=O)CNC(=O)[C@@H]3CCCN3C(=O)[C@H](CCCCNC(=O)/C=N/O[C@@H]3O[C@@H](C)[C@@H](O)[C@@H](O)[C@@H]3O)NC2=O)NC(=O)CNC(=O)[C@@H]2CCCN2C(=O)[C@H](CCCCNC(=O)/C=N/OCC(=O)NCCCC[C@@H]2NC(=O)[C@H](CCCCNC(=O)/C=N/O[C@@H]3O[C@@H](C)[C@@H](O)[C@@H](O)[C@@H]3O)NC(=O)CNC(=O)[C@@H]3CCCN3C(=O)[C@H](CCCCNC(=O)/C=N/O[C@@H]3O[C@@H](C)[C@@H](O)[C@@H](O)[C@@H]3O)NC(=O)[C@H](C)NC(=O)[C@H](CCCCNC(=O)/C=N/O[C@@H]3O[C@@H](C)[C@@H](O)[C@@H](O)[C@@H]3O)NC(=O)CNC(=O)[C@@H]3CCCN3C(=O)[C@H](CCCCNC(=O)/C=N/O[C@@H]3O[C@@H](C)[C@@H](O)[C@@H](O)[C@@H]3O)NC2=O)NC1=O [Compound 19]	10	0.06	10	76.72 ± 3.35	66.68	44 ± 5	nanomolar affinity	9.8	0.6		
C[C@@H]1NC(=O)[C@H](CCCCn2cc(CO[C@@H]3O[C@@H](C)[C@@H](O)[C@@H](O)[C@@H]3O)nn2)NC(=O)CNC(=O)[C@@H]2CCCN2C(=O)[C@H](CCCCn2cc(CO[C@@H]3O[C@@H](C)[C@@H](O)[C@@H](O)[C@@H]3O)nn2)NC(=O)[C@H](CCCCN)NC(=O)[C@H](CCCCn2cc(CO[C@@H]3O[C@@H](C)[C@@H](O)[C@@H](O)[C@@H]3O)nn2)NC(=O)CNC(=O)[C@@H]2CCCN2C(=O)[C@H](CCCCn2cc(CO[C@@H]3O[C@@H](C)[C@@H](O)[C@@H](O)[C@@H]3O)nn2)NC1=O [Compound 16]		0.19	8.8	28.56 ± 0.24	19.8	367 ± 26		1.2	0.3	300	
C[C@@H]1NC(=O)[C@H](CCCCNC(=O)/C=N/O[C@@H]2O[C@@H](C)[C@@H](O)[C@@H](O)[C@@H]2O)NC(=O)CNC(=O)[C@@H]2CCCN2C(=O)[C@H](CCCCNC(=O)/C=N/O[C@@H]2O[C@@H](C)[C@@H](O)[C@@H](O)[C@@H]2O)NC(=O)[C@H](CCCCNC(=O)CO/N=C/C(=O)NCCCC[C@@H]2NC(=O)CNC(=O)[C@@H]3CCCN3C(=O)[C@H](CCCCNC(=O)/C=N/OCC(=O)NCCCC[C@@H]3NC(=O)[C@H](CCCCNC(=O)/C=N/O[C@@H]4O[C@@H](C)[C@@H](O)[C@@H](O)[C@@H]4O)NC(=O)CNC(=O)[C@@H]4CCCN4C(=O)[C@H](CCCCNC(=O)/C=N/O[C@@H]4O[C@@H](C)[C@@H](O)[C@@H](O)[C@@H]4O)NC(=O)[C@H](C)NC(=O)[C@H](CCCCNC(=O)/C=N/O[C@@H]4O[C@@H](C)[C@@H](O)[C@@H](O)[C@@H]4O)NC(=O)CNC(=O)[C@@H]4CCCN4C(=O)[C@H](CCCCNC(=O)/C=N/O[C@@H]4O[C@@H](C)[C@@H](O)[C@@H](O)[C@@H]4O)NC3=O)NC(=O)[C@H](CCCCN)NC(=O)[C@H](CCCCNC(=O)CO/N=C/C(=O)NCCCC[C@@H]3NC(=O)[C@H](CCCCn4cc(CO[C@H]5O[C@H](CO)[C@@H](O)[C@H](O)[C@@H]5O)nn4)NC(=O)CNC(=O)[C@@H]4CCCN4C(=O)[C@H](CCCCn4cc(CO[C@H]5O[C@H](CO)[C@@H](O)[C@H](O)[C@@H]5O)nn4)NC(=O)[C@H](C)NC(=O)[C@H](CCCCn4cc(CO[C@H]5O[C@H](CO)[C@@H](O)[C@H](O)[C@@H]5O)nn4)NC(=O)CNC(=O)[C@@H]4CCCN4C(=O)[C@H](CCCCn4cc(CO[C@H]5O[C@H](CO)[C@@H](O)[C@H](O)[C@@H]5O)nn4)NC3=O)NC(=O)CNC(=O)[C@@H]3CCCN3C(=O)[C@H](CCCCNC(=O)CO/N=C/C(=O)NCCCC[C@@H]3NC(=O)[C@H](CCCCn4cc(CO[C@H]5O[C@H](CO)[C@@H](O)[C@H](O)[C@@H]5O)nn4)NC(=O)CNC(=O)[C@@H]4CCCN4C(=O)[C@H](CCCCn4cc(CO[C@H]5O[C@H](CO)[C@@H](O)[C@H](O)[C@@H]5O)nn4)NC(=O)[C@H](C)NC(=O)[C@H](CCCCn4cc(CO[C@H]5O[C@H](CO)[C@@H](O)[C@H](O)[C@@H]5O)nn4)NC(=O)CNC(=O)[C@@H]4CCCN4C(=O)[C@H](CCCCn4cc(CO[C@H]5O[C@H](CO)[C@@H](O)[C@H](O)[C@@H]5O)nn4)NC3=O)NC(=O)[C@H](C)NC2=O)NC(=O)[C@H](CCCCNC(=O)/C=N/O[C@@H]2O[C@@H](C)[C@@H](O)[C@@H](O)[C@@H]2O)NC(=O)CNC(=O)[C@@H]2CCCN2C(=O)[C@H](CCCCNC(=O)/C=N/O[C@@H]2O[C@@H](C)[C@@H](O)[C@@H](O)[C@@H]2O)NC1=O [Compound 12]		0.08	9.66	50.43 ± 0.72	40.77	85 ± 16		5.1			50.7
